Measurements taken from patent US20230219898A1, “COMPOUNDS AND METHODS FOR BLOCKING APOPTOSIS AND INDUCING AUTOPHAGY” (President and Fellows of Harvard College, priority 2020, published 2023).

Legend:
MEFs, BV2 cells, BMDMs = experiment: Inflammatory responses in cells stimulated with TNFα or PAMPs; assay type: cell-based; conditions: 10 μM
Procedure: The protein levels of iNOS and Cox2 were determined by immunoblotting.
TNFα production was determined by ELISA.
The cells were then treated with Apt-1 (10 μM) or Nec-1s (10 μM) for 1 h and MDP (10 μg/ml) was added to cells directly and treated for 8 h. TNFα production was determined by ELISA. Mean ±s.d. from technical triplicates (n=3), representative of 3 independent experiments.

[1] = test system: TRADD-N mutants (Y16A, F18A, I72A, R119A, G121A); experiment: Thermal shift assay with His-TRADD-N mutants; assay type: binding, human
Procedure: To determine stability, purified proteins were made to a final concentration of […]. SYPRO Orange dye was added to the protein to make a final concentration of 2×. Compounds were added in the mix with a final concentration of 250 μM or as indicated and incubated at 4C for 1 h. The experiments were performed in 384-well plates specific for real-time PCR instrument with a total volume of 20 μl/well. The assay plate was covered with a sheet of optically clear adhesive to seal each well. The assay plate was centrifuged at 800×g for 2 min at 25C to collect solutions in the bottom of the well and remove bubbles. The assay plate was placed into the Applied Biosystems QuantStudio 6 Real-Time PCR System. The reaction was run from 25C, ramping up in increments of 0.05° C./s to a final temperature of 95C with fluorescence detection throughout the experiment to generate a dataset. Melting temperature of the protein (Tm) was determined by performing non-linear fitting of the dataset to a Boltzmann Sigmoidal curve in GraphPad Prism with the following equation: Y=Bottom+(Top-Bottom)/[1+exp(Tm-X/Slope)], where Y=fluorescence emission in arbitrary units; X=temperature; Bottom=baseline fluorescence at low temperature; Top=maximal fluorescence at top of the dataset; Slope=describes the steepness of the curve, with larger values denoting shallower curves.

His-TRADD-N = molecular target: T1, His-TRADD-N (Homo sapiens, UniProt Q15628); experiment: Thermal shift assay with His-TRADD-N; assay type: binding
T1 construct: expression constructs encoding Flag-TRADD-N(1-179) and HA-TRADD-C(180-312); made in house; host or cells: E. coli BL21 (DE3), pET-28a
Procedure: Recombinant WT and mutant His-TRADD-N(aal-179) protein fragment was expressed in BL21 (DE3) E. coli after induction with 0.5 mM IPTG overnight at 16C. ^15N-labeled TRADD-N domain protein was purified from E. co/i grown at 16C in minimal medium. Bacteria were harvested and disrupted by a high-pressure homogenizer and purified by Ni^2+ affinity resin (GE Healthcare). All proteins were further purified by size exclusion chromatograph on a Superdex 75 column (GE Healthcare) in a buffer containing 20 mM imidazole (pH6.6), 200 mM NaCl, 20 mM DTT and 0.05% NaN3. All NMR samples were in the same buffer at concentrations between 0.2-0.4 mM with 90% H2O/10% D2O. […]
To determine stability, purified proteins were made to a final concentration of 1 μg/l. […] The reaction was run from 25C, ramping up in increments of 0.05° C./s to a final temperature of 95C with fluorescence detection throughout the experiment to generate a dataset. Melting temperature of the protein (Tm) was determined by performing non-linear fitting of the dataset to a Boltzmann Sigmoidal curve in GraphPad Prism with the following equation: Y=Bottom+(Top-Bottom)/[1+exp(Tm-X/Slope)], where Y=fluorescence emission in arbitrary units; X=temperature; Bottom=baseline fluorescence at low temperature; Top=maximal fluorescence at top of the dataset; Slope=describes the steepness of the curve, with larger values denoting shallower curves.

TRADD-N and TRAF2-C = molecular target: T2, TRADD-N and TRAF2-C (Homo sapiens, UniProt Q15628); experiment: Cell-free FRET assay TRADD-N / TRAF2-C; assay type: biochemical; conditions: incubated 1 h
T2 construct: expression constructs encoding Flag-TRADD-N(1-179) and HA-TRADD-C(180-312); expressed in transfected cells; host or cells: HEK293T
Procedure: When FRET occurs, the acceptor mVenus-TRADDN-Flag (mV-TRADDN) emission will increase and the donor emission will decrease. Apt-1 was added to the system with indicated concentration and incubated for 1 h, then subjected to FRET assay.
mVenus- and Flag-tagged TRADD-N(mVenus-TRADDN-Flag) and mCerulean- and Flag-tagged TRAF2C (Flag-TRAF2C-mCerulean) was expressed in HEK293T cells for 48 h. Then cells were lysed in NP-40 buffer followed by immunoprecipitation using anti-Flag affinity gel. The proteins were eluted by 5 mg/ml 3×Flag peptide and exchanged into assay buffer (120 mM NaCl, 20 mM NaH2PO4/Na2HPO4, pH 7.4) by dialysis for FRET assay. The proteins were added into Coming black 96-well microtiter plates in triplicates at a final concentration of 1 μM. Apt-1 was incubated with the proteins for 1 h before measurement. Measurements were performed on a fluorescent plate reader (Victor3, 1420 Multilabel counter, Perkin Elmer). The following filter set was used: mCerulean filter set (excitation: 430/15 nm, emission: 460/20 nm); mVenus filter set (excitation: 485/15, emission 535/15); FRET filter set (430/15 nm, emission 450-600 nm).

MEFs = experiment: RDA in MEFs induced by mTNFα and 5Z-7-Oxozeaenol, cell survival; assay type: cell-based, mouse; conditions: for protection against RDA models: 10 μM; for IC50: Mus musculus, FIG. 5c, mTNFα 1 ng/mL, 5Z-7-Oxozeaenol 0.5 μM, 8 h, read-out: IC50 of inhibition of RDA
Procedure: The rates of cell death were measured in triplicate or quadruplicate in a 96-well or 384-well plate by using SYTOX Green Nucleic Acid Stain (Invitrogen) or ToxiLight Non-destructive Cytotoxicity BioAssay Kit (Lonza). The intensity of luminescence was determined in an EnSpire Multimode Plate Reader (PerkinElmer). Cytotoxicity is expressed as percentages of cell death per well after deducting the background signal in non-induced cells and compared to that of the maximal cell death with 100% Lysis Reagent. The rates of cell viability were determined by using CellTiter-Glo Luminescent Cell Viability Assay (Promega) following the manufacturer's protocol and the results are expressed as percentages of luminescence intensity per well after deducting the background signal in blank well and compared to that of the viability in the non-treated wells. Concentration of drugs used for inducing or inhibiting cell death, mTNFα: 1 ng/ml; 5Z-7-Oxozeaenol: 0.5 μM; Velcade: 50 nM; Apt-1/ICCB-19/ICCB-19i/Nec-1s: 10 μM.

T1 sequence (Q15628 1-179): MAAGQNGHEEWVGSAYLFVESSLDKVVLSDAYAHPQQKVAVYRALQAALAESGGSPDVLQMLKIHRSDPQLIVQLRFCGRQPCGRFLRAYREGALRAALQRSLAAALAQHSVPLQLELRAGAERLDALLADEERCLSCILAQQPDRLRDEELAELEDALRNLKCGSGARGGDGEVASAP
T2 sequence (Q15628 1-179): as above

SMILES: CN1CCN=C1SC(C(=O)NC1CCCCCC1)c1ccccc1 (stereo not drawn) [Compound 30]
- production of inflammatory target genes and inflammatory cytokines (MEFs, BV2 cells, BMDMs): reduced production
- binding with recombinant TRADD-N mutants [1]: reduced relative to WT
- increase of Tm of His-TRADD-N (His-TRADD-N): 3.7 °C
- binding of TRADD-N to TRAF2-C (FRET) (TRADD-N and TRAF2-C): dose-dependently reduced
- protection against RDA models (MEFs): protected against multiple RDA models
- IC50 (MEFs): ~1000 nM

SMILES: O=C(CSC1=NCCN1)NC1CCCCCC1 [ICCB-19]
- production of inflammatory target genes and inflammatory cytokines (MEFs, BV2 cells, BMDMs): reduced production
- protection against RDA models (MEFs): protected against multiple RDA models
- IC50 (MEFs): ~1000 nM
